Measurements from BigSolDB 2.1.

COc1c(O)cc2c(c1O)[C@@H]1O[C@H](CO)[C@@H](O)[C@H](O)[C@H]1OC2=O
solubility (mole fraction)
Conditions	298.15 K	303.15 K	308.15 K	313.15 K	318.15 K
in DMSO	0.0168	0.0182	0.0198	0.0212	0.0229
in water	7.5e-05	9.88e-05	0.000123	0.000151	0.000185
